# Experimental data published in patent publication US20240350494A1, “THERAPEUTIC MODULATION OF INTEGRINS” (Pliant Therapeutics, Inc., priority 2021, published 2024).
# “Also recorded” adds a separate entry of the source.
# Assays:
# [1] = SAD/MAD first-in-human pharmacokinetics; type: in vivo; conditions: healthy subjects
# Protocol: Healthy human subjects (N=85) were selected for single ascending dose (SAD) and multiple ascending dose (MAD) first-in-human studies. A solution for oral administration was prepared, containing 10 mg/mL of compound 5 in a 50:50 mixture of ORA-SWEET® SF (PERRIGO®, Allegan, Michigan) and sterile water for irrigation. Sufficient solution was administered orally to the subjects to provide between 15 mg/dose and 75 mg/dose of compound 5 in the SAD study and between 10 mg/dose and 40 mg/dose of compound 5 in the MAD study. Concentrations of compound 5 were measured in the subjects by obtaining a sample of plasma from each subject at desired intervals, and subjecting the plasma to liquid chromatography-mass spectrometry-mass spectrometry (LC-MS/MS), with quantification using a calibration curve determined from a range of solutions at standardized concentrations. The lower limit of quantitation (LLOQ) of the assay was 1 ng/mL and the calibration curve range was 1 to 500 ng/mL.
# [2] = tested on: Quantitative Lung Fibrosis (QLF); assay: Phase 2a trial in IPF, HRCT-based Quantitative Lung Fibrosis; type: in vivo, human; conditions: baseline to week 12, CT Protocol Population
# From the text: (§1) The exploratory endpoints of the trial measured changes in forced vital capacity (FVC), HRCT-based Quantitative Lung Fibrosis score (QLF), and selected biomarkers over 3 months of treatment.
# FIG. 29 illustrates the Mean Percent Change in Quantitative Lung Fibrosis (the extent from baseline to week 12 in the CT Protocol Population), using High-Resolution Computed Tomography (HRCT) based Quantitative Lung Fibrosis (QLF) imaging.
# COL1A1 expression = assay: Precision cut lung slices from human IPF explants, COL1A1 expression; type: cell-based
# From the text: Explanted lung tissue was obtained from human IPF subjects and inflated with agarose as described in the preceding examples. Biopsy cores were obtained from the agarose-inflated lung tissue. The biopsy cores were subjected to precision slicing to obtain several hundred μm thick. Individual slices were distributed in a multiwell culture plate and cultured for […] under control (DMSO) and test compound conditions. The viability of the slices over the course of culturing was confirmed by WST-1 assay of mitochondrial activity.
# PCLS from 5-7 idopathic pulmonary fibrosis (IPF) lung tissue samples were cultured for seven days with one of: DMSO; Compound 5 at 200 nM; nintedanib at 75 nM; pirfenidone at 50 μm; a combination of Compound 5 at 200 nM and nintedanib at 75 nM; a combination of Compound 5 at 200 nM and pirfenidone at 50 μm; or an Alk5 inhibitor at 1 μm. […] FIG. 4D is a bar graph showing relative expression of COL1A1 in precision cut lung slices (PCLS) from idopathic pulmonary fibrosis (IPF) lung tissue upon exposure to Compound 5, clinical standard of care compounds nintedanib (Nin) and pirfenidone (Pirf), and an ALK5 inhibitor, all versus DMSO control.
# PCLS from a single IPF lung tissue sample were cultured for seven days with Compound 5 at concentrations of 200 μM, 2 nM, 60 nM, 200 nM, and 1 μM, along with 0.1% DMSO control and an Alk5 inhibitor at 1 μM. […] COL1A1 expression is also graphed for the PCLS in the presence of 0.1% DMSO control, and an Alk5 inhibitor at 1 μM.
# [3] = tested on: forced vital capacity (FVC); assay: Phase 2a trial in IPF, forced vital capacity; type: in vivo, human
# From the text: as §1
# FIG. 19 illustrates the change in FVC (forced vital capacity) from baseline to Week 12, MMRM Analysis—ITT Population. Change from baseline analyzed using a mixed model for repeated measures with terms for treatment group, SOC (Y/N), visit, baseline value, and treatment-by-visit interaction. An unstructured covariance (UN) structure was used.
# [4] = tested on: Type I Collagen gene Col1a1 expression; assay: Precision cut lung slices, acute bleomycin exposure, Col1a1 expression; type: cell-based, mice (C57BL/6); conditions: 3 days culture; integrin inhibitors at IC50 for TGF-beta activation; pan-αV and ALK5 inhibitors at 10× reported IC50; FIG. 3A
# Protocol: Mice (C57BL/6) were administered 3 U/kg of bleomycin (Teva Pharmaceuticals; North Wales, PA) on day 0 via oropharyngeal aspiration while under anesthesia. On day 14, precision cut lung slices were obtained. Following euthanization, 2% low gelling temp agarose was injected into the mouse lungs via the trachea. […] The lobes were then subjected to precision slicing to obtain samples for culture using a microtome (Compresstome VF-300-OZ, Precisionary; Greenville, NC). Individual slices were distributed in a multiwell culture plate and cultured for 3 days under control (DMSO) and test compound conditions.
# SMAD3 phosphorylation = assay: Murine bleomycin model, SMAD3 phosphorylation; type: in vivo, mice (C57BL/6); conditions: bleomycin day 0, oral gavage BID 14 days from day 7 at 1×, 5×, FIG. 2C
# From the text: It has been previously shown that inhibition of αVβ6 in the lung can be detected though measurement of phospho-SMAD (pSMAD) in alveolar macrophages. Alveolar macrophages are known to operate in a unique niche in the lung, distinct from interstitial macrophages. SMAD3 is a downstream target of the active TGF-β cytokine binding its receptor and in alveolar macrophages it is phosphorylated by homoeostatic levels of TGF-β. Accordingly, it was desirable to know whether inhibition of TGF-β activation using the disclosed compounds would result in reduced SMAD2 and SMAD3 phosphorylation.
# Mice (C57BL/6) were divided into healthy (n=15), vehicle-treated (n=15), and test article-treated (n=15 per dose) groups. Mice in the vehicle and test article-treated groups were administered 3 U/kg of bleomycin (Teva Pharmaceuticals; North Wales, PA) via oropharyngeal aspiration while under anesthesia on day 0. Healthy animals were administered water in a similar fashion. Starting on day 7, mice in the control group were administered PBS vehicle, 130 μL, by oral gavage, BID for 14 days. Also starting on day 7, mice in the test group were administered compound 5 in PBS by oral gavage, BID for 14 days, at relative dosages of 1×, 2.5× and 5×. […] From day 14 through day 21, 9 of the 15 mice were administered ^2H2O for labeling. All mice were sacrificed on day 21 and tissues were collected. […]
smiles,measurement,setting,value
"COCCN(CCCCc1ccc2c(n1)NCCC2)CC[C@H](Nc1ncnc2ccccc12)C(=O)O [Compound 5, (S)-4-((2-methoxyethyl)(4-(5,6,7,8-tetrahydro-1,8-naphthyridin-2-yl)butyl)amino)-2-(quinazolin-4-ylamino)butanoic acid]",oral bioavailability and pharmacokinetics,[1],good oral bioavailability and pharmacokinetics
same,"Improvers < −2% QLF extent change, (%)",[2]; 40 mg (N = 15),6.6%
same,"Median, QLF extent change",[2]; 40 mg (N = 15),1.50%
same,"Stable [−2, 2%) QLF extent change, (%)",[2]; 40 mg (N = 15),46.7%
same,"Worse > 2% QLF extent change, (%)",[2]; 40 mg (N = 15),46.7%
same,"Improvers < −2% QLF extent change, (%)",[2]; 80 mg (N = 18),11.1%
same,"Mean Difference (SD), QLF extent",[2]; 80 mg (N = 18),0.70%
same,"Median, QLF extent change",[2]; 80 mg (N = 18),−0.45%
same,"Stable [−2, 2%) QLF extent change, (%)",[2]; 80 mg (N = 18),72.2%
same,"Worse > 2% QLF extent change, (%)",[2]; 80 mg (N = 18),16.7%
same,"Improvers < −2% QLF extent change, (%)",[2]; 160 mg (N = 14),28.6%
same,"Mean Difference (SD), QLF extent",[2]; 160 mg (N = 14),0.00%
same,"Median, QLF extent change",[2]; 160 mg (N = 14),−0.10%
same,"Stable [−2, 2%) QLF extent change, (%)",[2]; 160 mg (N = 14),50.0%
same,"Worse > 2% QLF extent change, (%)",[2]; 160 mg (N = 14),21.4%
same,"lung Col1a1 expression, normalized to DMSO control slices","COL1A1 expression; human IPF slices, 3 days, 3G9 ≥400 ng/mL, compound 5 179 nM, ALK5 inhibitor 1 μM, FIG. 4C","substantial, statistically significant (p<0.01 vs vehicle) decrease"
same,"COL1A1 expression, concentration dependence","COL1A1 expression; single IPF sample, seven days, 200 μM, 2 nM, 60 nM, 200 nM, 1 μM, FIG. 4E",dose dependent reduction
same,increase in FVC relative to baseline,"[3]; 80 mg QD, 12 weeks",+24.6 mL
same,treatment effect on FVC versus placebo at 12 weeks,"[3]; 40, 80, 160 mg QD",dose-dependent treatment effect
same,"proportion of patients experiencing a FVCpp decline of ≥10%, dose dependence","[3]; 40, 80, 160 mg QD, 12 weeks",Dose-dependent reduction; also recorded: dose-dependent decrease; also recorded: Dose dependent reduction
same,treatment effect with and without standard of care therapy,"[3]; all Compound 5 dose groups, SoC nintedanib or pirfenidone",A treatment effect was observed; also recorded: evident with and without use of standard-of-care agents
same,"Type I Collagen gene Col1a1 expression, normalized to DMSO control slices",[4],decreased Type I Collagen gene Col1a1 expression substantially
same,SMAD3 phosphorylation in lung tissue compared to vehicle-treated mice,SMAD3 phosphorylation,"substantial, statistically significant dose-dependent reductions"
